Key:
[1] = molecular target: T1, E-selectin (Homo sapiens) (UniProt P16581); assay: Ability to inhibit the binding to Selectin E immobilized on SPA beads of radiolabeled HL-60 cell membrane was determined at concentration of 10 mM; format: cell membranes
T1 sequence (whole entry): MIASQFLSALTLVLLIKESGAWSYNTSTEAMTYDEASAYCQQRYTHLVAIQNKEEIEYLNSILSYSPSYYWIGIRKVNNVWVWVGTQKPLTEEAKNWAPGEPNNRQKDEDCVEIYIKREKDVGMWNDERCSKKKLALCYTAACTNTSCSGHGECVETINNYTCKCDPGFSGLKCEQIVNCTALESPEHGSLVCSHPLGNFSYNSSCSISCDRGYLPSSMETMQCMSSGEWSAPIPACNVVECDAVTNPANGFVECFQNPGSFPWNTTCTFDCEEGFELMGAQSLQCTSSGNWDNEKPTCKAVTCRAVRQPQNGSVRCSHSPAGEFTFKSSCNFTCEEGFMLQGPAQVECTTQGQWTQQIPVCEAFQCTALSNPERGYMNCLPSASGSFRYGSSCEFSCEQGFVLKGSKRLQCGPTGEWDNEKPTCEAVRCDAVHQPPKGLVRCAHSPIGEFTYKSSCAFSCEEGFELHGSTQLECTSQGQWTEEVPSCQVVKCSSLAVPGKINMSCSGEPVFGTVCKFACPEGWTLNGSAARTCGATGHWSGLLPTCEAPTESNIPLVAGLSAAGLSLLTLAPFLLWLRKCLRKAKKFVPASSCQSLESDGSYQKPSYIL

[2] = molecular target: T2, E-selectin (Homo sapiens, UniProt P16581); assay: Ability to inhibit the binding to Selectin E immobilized on SPA beads of radiolabeled HL-60 cell membrane was determined; format: cell membranes
T2 sequence (P16581 whole entry): T1 sequence (whole entry)

[3] = molecular target: T2, E-selectin; assay: Affinity of compound to Selectin E was determined

SMILES	inhibition [1] [%]	IC50 [2] [µM]	Kd [3] [µM]
CC(=O)NC1C(O)CC(OC2CCO[C@]3(CCC(OC4OC(C)C(O)C(O)C4O)CO3)C2)(C(=O)O)OC1[C@H](O)[C@H](O)CO (stereo partly drawn)	35		
CC(=O)N[C@H]1[C@H]([C@H](O)[C@H](O)CO)O[C@@](O[C@H]2[C@@H](O)[C@@H](CO)O[C@@H](O[C@@H]([C@H](O[C@@H]3O[C@@H](C)[C@@H](O)[C@@H](O)[C@@H]3O)[C@H](C=O)NC(C)=O)[C@H](O)CO)[C@@H]2O)(C(=O)O)C[C@@H]1O [SIALYL LEWIS X]		300	1000
